Data set [1] can be described thus: Cytotoxicity against human HMLE cells expressing shRNA and GFP at 20 uM after 70 to 74 hrs by Cell Titer Glo assay. The format is cell-based. On the technique in general: ATP-based viability assays read luminescence as a measure of living cells.
Data set [2] has as its system HMLE. Description: Cytotoxicity against human CSC-like HMLE cells expressing shRNA and epithelial cadherin at 20 uM after 70 to 74 hrs by Cell Titer Glo assay. The data set is classed as functional, cell-based.
Data set [3] is described as follows: Cytotoxicity against human CSC-like HMLE cells expressing shRNA and epithelial cadherin after 70 to 74 hrs by Cell Titer Glo assay. The data set is classed as functional, cell-based.

Our source for the Activity and EC50 values is ChEMBL document CHEMBL2390918, “Cinnamides as selective small-molecule inhibitors of a cellular model of breast cancer stem cells” (Bioorg Med Chem Lett, 2013).

Calls of active or inactive are those of the source. No cut-off for these calls is given here.

In the case of `CCNC(=O)/C=C/c1ccc(C(C)C)cc1`, the Activity entry in data set [1] is listed as “Non-toxic”. In addition, the result in data set [2] was inactive.
What is called EC50 is the concentration needed to bring the measured effect to its halfway point. With `N#Cc1ccc(/C=C/C(=O)NC2=NCCS2)cc1`, the Activity entry in data set [1] is “Non-toxic”. This compound returned an EC50 in data set [3] of 26.9 µM.
With `COc1ccc(/C=C/C(=O)NC2=NCCS2)c(OC)c1`, in data set [1], the Activity entry is listed as “Non-toxic”. Moreover, in data set [3], the EC50 came to 9.91 µM.
`O=C(/C=C/c1ccccc1)NC1=NCCS1`: in data set [1], the Activity entry is on record as “Non-toxic”. The outcome in data set [2] was inactive.
The matching figures for `CC(C)c1ccc(/C=C\C(=O)NC2=NCCS2)cc1`: “Non-toxic” and “inactive”.
In the same order, the values of `COc1cc(OC(C)C)ccc1/C=C/C(=O)NC1=NCCS1` are “Non-toxic” and “inactive”.
The matching figures for `O=C(/C=C/c1ccc(Cl)c(Cl)c1)NC1=NCCS1`: “Non-toxic” and “inactive”.
Take `O=C(/C=C/c1ccc(C(F)(F)F)cc1)NC1=NCCS1`: the Activity entry in data set [1] is reported as “Non-toxic”. For the same compound, the outcome in data set [2] was inactive.
The matching figures for `O=C(/C=C/c1ccc(Cl)cc1Cl)NC1=NCCS1`: “Non-toxic” and “inactive”.
For the compound `O=C(NC1=NCCS1)c1cc2ccccc2[nH]1`, the Activity result in data set [1] is given as “Non-toxic”. For the same compound, the result in data set [2] was inactive.
For the compound `COc1cc(/C=C/C(=O)NC2=NCCS2)cc(OC)c1OC`, the Activity entry in data set [1] is on record as “Non-toxic”. Further, the result in data set [2] was inactive.
As to `N#Cc1ccccc1/C=C/C(=O)NC1=NCCS1`, the Activity entry in data set [1] is “Non-toxic”. Besides, in data set [2], the outcome was inactive.
For `C/C(=C\C(=O)NC1=NCCS1)c1ccc(C)cc1`, the Activity result in data set [1] is given as “Non-toxic”. Besides, the result in data set [2] was inactive.
For `Cc1c(C(=O)NC2=NCCS2)oc2ccccc12`, in data set [1], the Activity result is “Non-toxic”. Also, the result in data set [2] was inactive.
The matching figures for `Cn1c(C(=O)NC2=NCCS2)cc2ccccc21`: “Non-toxic” and “inactive”.
The matching figures for `O=C(/C=C/c1cc(Cl)ccc1Cl)NC1=NCCS1`: “Non-toxic” and “inactive”.
The matching figures for `Cc1ccccc1/C=C/C(=O)NC1=NCCS1`: “Non-toxic” and “inactive”.
As for `CC(C)c1ccc(/C=C(\C#N)C(=O)NC2=NCCS2)cc1`, in data set [1], the Activity entry was “Non-toxic”. For the same compound, the result in data set [2] was inactive.
The matching figures for `O=C(/C=C/c1ccc(F)cc1)NC1=NCCS1`: “Non-toxic” and “inactive”.
The matching figures for `COc1ccc(OC)c(/C=C/C(=O)NC2=NCCS2)c1`: “Non-toxic” and “inactive”.
In the same order, the values of `CCN(CC)C(=O)/C=C/c1ccc(C(C)C)cc1` are “Non-toxic” and “inactive”.
For `Cc1cccc(/C=C/C(=O)NC2=NCCS2)c1`, in data set [1], the Activity entry is given as “Non-toxic”. In addition, the result in data set [2] was inactive.
With `COc1ccc(/C=C/C(=O)NC2=NCCS2)c(OC)c1OC`, the Activity result in data set [1] is “Non-toxic”. Also, in data set [2], the result was inactive.
For `C/C(=C\C(=O)NC1=NCCS1)c1ccc(CC(C)C)cc1`, the Activity result in data set [1] is listed as “Non-toxic”. Also, the outcome in data set [2] was inactive.
In the same order, the values of `CC(C)c1ccc(C2CC2C(=O)NC2=NCCS2)cc1` (stereo not drawn) are “Non-toxic” and “inactive”.
On to `CC(C)c1ccc(/C=C/C(=O)O)cc1`, for which, in data set [1], the Activity entry was “Non-toxic”. In addition, the outcome in data set [2] was inactive.
Consider `N#Cc1cccc(/C=C/C(=O)NC2=NCCS2)c1`, for which the Activity entry in data set [1] is “Non-toxic”. For the same compound, in data set [2], the result was inactive.
The matching figures for `COc1ccc(/C=C/C(=O)NC2=NCCS2)cc1OC`: “Non-toxic” and “inactive”.
For the compound `CC(C)c1ccc(C#CC(=O)NC2=NCCS2)cc1`, in data set [1], the Activity result is reported as “Non-toxic”. Moreover, the outcome in data set [2] was inactive.
